The test system of series [1] is Staphylococcus aureus. Put plainly: Antibacterial activity against methicillin-resistant Staphylococcus aureus assessed as bacterial growth inhibition incubated for 24 hrs by CLSI based two serial dilution assay. Type of series: functional.
For a further series, the system named is Enterococcus faecalis. Description: Antibacterial activity against Enterococcus faecalis assessed as bacterial growth inhibition incubated for 24 hrs by CLSI based two serial dilution assay. Type of series: functional.
In series [2] the test system is Staphylococcus aureus. Description: Antibacterial activity against Staphylococcus aureus assessed as bacterial growth inhibition incubated for 24 hrs by CLSI based two serial dilution assay. The format is functional.
The test system of series [3] is Staphylococcus aureus. Description: Antibacterial activity against Staphylococcus aureus 25923 assessed as bacterial growth inhibition incubated for 24 hrs by CLSI based two serial dilution assay. The format is functional.
In series [4] the test system is Staphylococcus aureus. Put plainly: Antibacterial activity against Staphylococcus aureus 29213 assessed as bacterial growth inhibition incubated for 24 hrs by CLSI based two serial dilution assay. Type of series: functional.
A further series relates to Klebsiella pneumoniae. Put plainly: Antibacterial activity against Klebsiella pneumoniae assessed as bacterial growth inhibition incubated for 24 hrs by CLSI based two serial dilution assay. The format is functional.
The subject of series [5] is Escherichia coli. Description: Antibacterial activity against Escherichia coli assessed as bacterial growth inhibition incubated for 24 hrs by CLSI based two serial dilution assay. Type of series: functional.
The subject of series [6] is Escherichia coli. Put plainly: Antibacterial activity against Escherichia coli 25922 assessed as bacterial growth inhibition incubated for 24 hrs by CLSI based two serial dilution assay. Type of series: functional.
The subject of series [7] is Pseudomonas aeruginosa. Put plainly: Antibacterial activity against Pseudomonas aeruginosa assessed as bacterial growth inhibition incubated for 24 hrs by CLSI based two serial dilution assay. The format is functional.
Series [8] has as its system Pseudomonas aeruginosa. Description: Antibacterial activity against Pseudomonas aeruginosa ATCC 27853 assessed as bacterial growth inhibition incubated for 24 hrs by CLSI based two serial dilution assay. Type of series: functional.
The next series relates to Acinetobacter baumannii. Put plainly: Antibacterial activity against Acinetobacter baumannii assessed as bacterial growth inhibition incubated for 24 hrs by CLSI based two serial dilution assay. Type of series: functional.
Series [9] relates to Staphylococcus aureus. Description: Induction of resistance development in methicillin-resistant Staphylococcus aureus assessed as fold increase in MIC measured after consecutive passages for 24 hrs by serial passaging assay. Type of series: functional.
Series [10] relates to Candida albicans. Put plainly: Antifungal activity against Candida albicans assessed as inhibition of fungal growth incubated for 24 hrs by CLSI based two serial dilution assay. Type of series: functional.
The test system of series [11] is Candida albicans. Description: Antifungal activity against Candida albicans ATCC 90023 assessed as inhibition of fungal growth incubated for 24 hrs by CLSI based two serial dilution assay. Type of series: functional.
The test system of another series is Candida tropicalis. Put plainly: Antifungal activity against Candida tropicalis assessed as inhibition of fungal growth incubated for 24 hrs by CLSI based two serial dilution assay. The format is functional.
In the next series the test system is Candida parapsilosis. Put plainly: Antifungal activity against Candida parapsilosis ATCC 22019 assessed as inhibition of fungal growth incubated for 24 hrs by CLSI based two serial dilution assay. The format is functional. As to conditions: Lodderomyces parapsilosis.
A further series has as its system Aspergillus fumigatus. Put plainly: Antifungal activity against Aspergillus fumigatus assessed as inhibition of fungal growth incubated for 24 hrs by CLSI based two serial dilution assay. The format is functional.
Series [12] deals with Staphylococcus aureus. Put plainly: Antibiofilm activity against methicillin-resistant Staphylococcus aureus assessed as inhibition of biofilm formation at 4 microg/ml incubated for 24 hrs by crystal violet staining based assay. Type of series: functional. Also noted: scale not given: the % may be the effect or the level left. As to conditions: dose 4 µg/ml.
Series [13] concerns Staphylococcus aureus. Description: Antibiofilm activity against methicillin-resistant Staphylococcus aureus assessed as biofilm eradication incubated for 24 hrs by crystal violet staining based assay. As to conditions: dose 1-16 µg/ml. Type of series: functional, organism-based.
In series [14] the test system is Staphylococcus aureus. Description: Bactericidal activity against methicillin-resistant Staphylococcus aureus assessed as reduction in viable bacteria at 4 times MIC measured at 30 mins by fluorescence microscopic analysis. The format is functional, organism-based.
Series [15] has as its system Staphylococcus aureus. Put plainly: Bactericidal activity against methicillin-resistant Staphylococcus aureus assessed as increase in apoptotic cells at 4 times MIC by fluorescence microscopic analysis. The format is functional, organism-based. As to conditions: time <= 250.0 min.
Series [16] relates to Staphylococcus aureus. Put plainly: Bactericidal activity against methicillin-resistant Staphylococcus aureus assessed as increase in apoptotic cells by measuring red fluorescence intensity at 4 times MIC measured upto 250 min by fluorescence microscopic analysis. Type of series: functional, organism-based.
Series [17] can be described thus: Hemolytic activity in human RBC assessed as hemolysis at 64 microg/ml incubated for 2 hrs by double-dilution analysis. Type of series: toxicity, cell-based, Erythrocyte. As to conditions: red blood cells (erythrocytes), at 64 µg/mL, read-out: Activity.
The nature of series [18]: Cytotoxicity against human BEAS-2B cells assessed as survival rate at 0.5 to 64 microg/ml incubated for 24 hrs by MTT assay. Type of series: toxicity, cell-based. As to conditions: at 0.5 to 64 µg/mL, dose 0.5-64 µg/ml, read-out: Activity.
In series [19] the test system is Staphylococcus aureus. Description: Antibiofilm activity against methicillin-resistant Staphylococcus aureus assessed as decrease in metabolic activity at 1 to 16 microg/ml measured for 6 hrs by alamar blue staining based assay. Type of series: functional, organism-based. As to conditions: dose 1-16 µg/ml.
Series [20] deals with Cell membrane. Put plainly: Induction of membrane depolarization in methicillin-resistant Staphylococcus aureus assessed as increase in fluorescence intensity at 1 times MIC by DiSC35 dye-based fluorescence assay. Type of series: subcellular. As to conditions: time 1.0 hrs, TDE = time-dependent effect.
Series [21] deals with Cell membrane. Put plainly: Induction of membrane depolarization in methicillin-resistant Staphylococcus aureus assessed as increase in fluorescence intensity at 4 times MIC measured at 5 min by DiSC35 dye-based fluorescence assay. The format is subcellular.
Series [22] relates to Cell membrane. Description: Induction of cell membrane permeability in Staphylococcus aureus assessed as increase in fluorescence intensity measured upto 135 mins by propidium iodide staining based fluorescence assay. The format is subcellular.
In series [23] the test system is Cell membrane. Description: Induction of cell membrane disruption in methicillin-resistant Staphylococcus aureus assessed as increase in protein leakage at 16 microg/ml incubated for 8 hrs. Type of series: subcellular. As to conditions: dose 16.0 µg/ml.
Series [24] has as its system Staphylococcus aureus. Description: Induction of morphological changes in methicillin-resistant Staphylococcus aureus assessed as membrane deformations at 4 times MIC incubated for 4 hrs by scanning electron microscopic analysis. The format is functional, organism-based.
For series [25], the system named is Staphylococcus aureus. Put plainly: Induction of morphological changes in methicillin-resistant Staphylococcus aureus assessed as cracking of cells at 4 times MIC incubated for 4 hrs by scanning electron microscopic analysis. The format is functional, organism-based.
In series [26] the test system is Calf thymus DNA. Description: Binding affinity to calf thymus DNA by UV/vis spectrophotometric analysis. The format is nucleic-acid assay. As to conditions: Bos taurus; dose 4.0 10^-5mol/L.
In series [27] the test system is Calf thymus DNA. Description: Binding affinity to calf thymus DNA assessed as compound-DNA complex formation at 4 10^-5mol/L by UV/vis spectrophotometric analysis. The format is nucleic-acid assay. As to conditions: Bos taurus.
Series [28] has as its system Calf thymus DNA. Description: Competitive binding affinity to calf thymus DNA assessed as compound-DNA complex formation upto 2 10^-5mol/L in presence of neutral red by UV/vis spectrophotometric analysis. The format is nucleic-acid assay. As to conditions: Bos taurus.

Converted amounts (≈) assume the structure as drawn. The source made the active and inactive calls. The calls are words filed in the database; no cut-off is given here. Some results are limits rather than exact numbers.

A word on the MIC: it is the lowest concentration found to suppress growth.

With `CCn1cc(C(=O)O)c(=O)c2cc(F)c(N3CCNCC3)cc21` [NORFLOXACIN], the MIC came out at 4 µM (≈ 1.28 µg/mL) with Staphylococcus aureus [1]; 4 µM (≈ 1.28 µg/mL) with Enterococcus faecalis; 1 µM (≈ 0.319 µg/mL) with Staphylococcus aureus [2]; 1 µM (≈ 0.319 µg/mL) in the series with Staphylococcus aureus [3]; 2 µM (≈ 0.639 µg/mL) with Staphylococcus aureus [4]; 4 µM (≈ 1.28 µg/mL) in the series with Klebsiella pneumoniae. The MIC turned out to be 16 µM (≈ 5.11 µg/mL) in the series with Escherichia coli [5]; 8 µM (≈ 2.55 µg/mL) in the series on Escherichia coli [6]; 2 µM (≈ 0.639 µg/mL) in the series on Pseudomonas aeruginosa [7]; 0.5 µM (≈ 0.16 µg/mL) with Pseudomonas aeruginosa [8]; 8 µM (≈ 2.55 µg/mL) with Acinetobacter baumannii. Besides, the “fold change (FC)” value in the series on Staphylococcus aureus [9] worked out at 4.
Regarding `CCCCN1C(=O)/C(=N\Nc2nccs2)c2ccccc21`, the MIC in the series with Staphylococcus aureus [1] amounted to 0.25 µM (≈ 0.0751 µg/mL); in the series with Enterococcus faecalis it was 0.5 µM (≈ 0.15 µg/mL); in the series on Staphylococcus aureus [2] it was 0.5 µM (≈ 0.15 µg/mL); in the series on Staphylococcus aureus [3] it was 0.25 µM (≈ 0.0751 µg/mL); in the series on Staphylococcus aureus [4] it was 0.25 µM (≈ 0.0751 µg/mL); with Klebsiella pneumoniae it was 0.25 µM (≈ 0.0751 µg/mL). In addition, the MIC is 0.5 µM (≈ 0.15 µg/mL) with Escherichia coli [5]; 0.25 µM (≈ 0.0751 µg/mL) in the series with Escherichia coli [6]; 0.5 µM (≈ 0.15 µg/mL) with Pseudomonas aeruginosa [7]; 0.5 µM (≈ 0.15 µg/mL) in the series with Pseudomonas aeruginosa [8]; 1 µM (≈ 0.3 µg/mL) in the series with Acinetobacter baumannii; 0.5 µM (≈ 0.15 µg/mL) in the series with Candida albicans [10]. Moreover, the MIC stood at 0.5 µM (≈ 0.15 µg/mL) in the series with Candida albicans [11], 0.5 µM (≈ 0.15 µg/mL) with Candida tropicalis, 0.5 µM (≈ 0.15 µg/mL) in the series with Candida parapsilosis and 1 µM (≈ 0.3 µg/mL) in the series with Aspergillus fumigatus. Also, the Activity was 30% in the series with Staphylococcus aureus [12], “Dose-Dependent Effect” in the series with Staphylococcus aureus [13], “Tde” in the series on Cell membrane [20] and “Dose-Dependent Effect” in the series with Calf thymus DNA [26]. The result in the series on Staphylococcus aureus [14], in the series on Staphylococcus aureus [15], in the series on Staphylococcus aureus [19], in the series with Cell membrane [21], in the series with Cell membrane [22] and in the series on Cell membrane [23] was Active. The outcome in the series on Staphylococcus aureus [24], in the series on Staphylococcus aureus [25], in the series on Calf thymus DNA [27] and in the series on Calf thymus DNA [28] was Active. Moreover, the result in the series with Staphylococcus aureus [16] was inactive. Also, the hemolysis at 2 h, 64 µg/mL in series [17] was less than 5%. Besides, the viability at 24 h in [18] is more than 75%.

The values are drawn from ChEMBL document CHEMBL5370535, “Thiazolyl hydrazineylidenyl indolones as unique potential multitargeting broad-spectrum antimicrobial agents” (Eur J Med Chem, 2023).
